According to patent US8093231B2, “Sulfonylethyl phosphorodiamidates” (Telik, Inc., priority 2004, dated 2012):

Test system: MX-1 (breast carcinoma)
Experiment: Cytotoxicity/growth inhibition assay, MX-1
Assay type: cell-based, human
Conditions: MX-1 cells, 3 days culture, CellTiter-Glo, 0.1-200 μM tested; read-out: IC50 (MX-1)
From the text: (§1) The human cancer cell lines DLD-1 (colorectal adenocarcinoma), LNCap (prostate carcinoma), and OVCAR-3 (ovarian carcinoma) were obtained from the American Type Culture Collection, Manassas, Va., U.S.A., and HL-60 (promyeloid myelocytic leukemia), MX-1 (breast carcinoma), P388, and P388ADR from the National Cancer Institute, Bethesda, Md., U.S.A. Carboplatin, doxorubicin, and melphalan were obtained from Sigma-Aldrich Chemical Company, St. Louis, Mo., U.S.A. The CellTiter-Glo assay kit was obtained from Promega Corporation, Madison, Wis., U.S.A., and the Cellular DNA Cytometric Analysis Reagent Kit from Roche Diagnostics Corporation, Indianapolis, Ind., U.S.A. Lambda DNA was obtained from New England Biolabs, Beverly, Mass., U.S.A., and SYBR-Gold from Molecular Probes, Inc., Eugene, Oreg., U.S.A. The DNeasy Tissue Kit was obtained from Qiagen Inc., Valencia, Calif., U.S.A., and AmpliTaq Gold DNA polymerase and PCR reagents from Applied Biosystems, Foster City, Calif., U.S.A. All products were used in accordance with manufacturer's directions. All assays were conducted in triplicate wells, with dimethyl sulfoxide (DMSO) solvent control. The extent of cell growth was expressed as a percentage of the signal from the solvent control wells.
(§2) Log-phase cells were trypsinized, collected by centrifugation, and resuspended in a small volume of fresh medium, and the density of viable cells was determined following Trypan Blue staining. Cells were diluted in fresh media (3×10^3 cells/mL for MX-1, 3×10^3 cells/mL for DLD-1, and 6×10^3 cells/mL for LNCap cells), the test compounds (concentrations between 0.1 and 200 μM, dissolved in DMSO, 50 μL) added immediately after dilution to achieve a final DMSO concentration of 0.5%, then the suspensions added at 150 μL/well to 96-well plates, and incubated for several hours to allow attachment in the case of adherent cells. The cells were cultured for approximately three doubling times (3 days for MX-1 and 4 days for DLD-1 and LNCap). The cells were then collected by centrifugation, and 100 μL of the culture supernatant was replaced by the CellTiter-Glo reagent. After incubation for 15 minutes at room temperature, and the plate was read with a luminometer.

Row | Compound | IC50 [µM]
1 | N[C@@H](CS(=O)(=O)CCOP(=O)(N(CCCl)CCCl)N(CCCl)CCCl)C(=O)NCCC(=O)O [Compound 94A] | 22.8
2 | CS(=O)(=O)N[C@@H](CS(=O)(=O)CCOP(=O)(N(CCCl)CCCl)N(CCCl)CCCl)C(=O)NCc1ccccc1 [Compound 95A] | 21.3
3 | CS(=O)(=O)N[C@@H](CS(=O)(=O)CCOP(=O)(N(CCCl)CCCl)N(CCCl)CCCl)C(=O)N1CCOCC1 [Compound 96A] | 30.2
4 | CC(C)NC(=O)[C@H](CS(=O)(=O)CCOP(=O)(N(CCCl)CCCl)N(CCCl)CCCl)NS(C)(=O)=O [Compound 97A] | 26.8
5 | CS(=O)(=O)N[C@@H](CS(=O)(=O)CCOP(=O)(N(CCCl)CCCl)N(CCCl)CCCl)C(=O)N1CCN(C(=O)c2ccco2)CC1 [Compound 98A] | 27.9
6 | N#Cc1ccc(S(=O)(=O)N[C@@H](CS(=O)(=O)CCOP(=O)(N(CCCl)CCCl)N(CCCl)CCCl)C(=O)NCc2ccccc2)cc1 [Compound 99A] | 16.2
7 | N#Cc1ccc(S(=O)(=O)N[C@@H](CS(=O)(=O)CCOP(=O)(N(CCCl)CCCl)N(CCCl)CCCl)C(=O)N2CCOCC2)cc1 [Compound 100A] | 16.2
8 | CC(C)NC(=O)[C@H](CS(=O)(=O)CCOP(=O)(N(CCCl)CCCl)N(CCCl)CCCl)NS(=O)(=O)c1ccc(C#N)cc1 [Compound 101A] | 14.8
9 | N#Cc1ccc(S(=O)(=O)N[C@@H](CS(=O)(=O)CCOP(=O)(N(CCCl)CCCl)N(CCCl)CCCl)C(=O)N2CCN(C(=O)c3ccco3)CC2)cc1 [Compound 102A] | 19.9
10 | O=C(O)[C@H](CS(=O)(=O)CCOP(=O)(N(CCCl)CCCl)N(CCCl)CCCl)NS(=O)(=O)c1ccccc1 [Compound 103A] | 18.2
11 | CS(=O)(=O)N[C@@H](CS(=O)(=O)CCOP(=O)(N(CCCl)CCCl)N(CCCl)CCCl)C(=O)O [Compound 104A] | 25.3
12 | O=C(O)[C@H](CS(=O)(=O)CCOP(=O)(N(CCCl)CCCl)N(CCCl)CCCl)NS(=O)(=O)c1ccc(Cl)cc1 [Compound 105A] | 31.6
13 | O=P(OCCS(=O)(=O)c1ccccc1Cl)(N(CCCl)CCCl)N(CCCl)CCCl [Compound 106A] | 4.2
14 | Cc1ccc(S(=O)(=O)CCOP(=O)(N(CCCl)CCCl)N(CCCl)CCCl)cc1 [Compound 107A] | 2.5
15 | O=P(OCCS(=O)(=O)c1ccc(Cl)cc1)(N(CCCl)CCCl)N(CCCl)CCCl [Compound 108A] | 3.3
16 | O=P(OCCS(=O)(=O)c1ccc(C(F)(F)F)cc1)(N(CCCl)CCCl)N(CCCl)CCCl [Compound 109A] | 1.1
17 | Cc1cccc(S(=O)(=O)CCOP(=O)(N(CCCl)CCCl)N(CCCl)CCCl)c1 [Compound 110A] | 2.7
18 | O=P(OCCS(=O)(=O)c1ccc(F)cc1)(N(CCCl)CCCl)N(CCCl)CCCl [Compound 111A] | 1.3

Test system: DLD-1 (colorectal adenocarcinoma)
Experiment: Cytotoxicity/growth inhibition assay, DLD-1
Assay type: cell-based, human
Conditions: DLD-1 cells, 4 days culture, CellTiter-Glo, 0.1-200 μM tested; read-out: IC50 (DLD-1)
From the text: as §1, §2

Row | Compound | IC50 [µM]
19 | N[C@@H](CS(=O)(=O)CCOP(=O)(N(CCCl)CCCl)N(CCCl)CCCl)C(=O)NCCC(=O)O [Compound 94A] | 37.5
20 | CS(=O)(=O)N[C@@H](CS(=O)(=O)CCOP(=O)(N(CCCl)CCCl)N(CCCl)CCCl)C(=O)NCc1ccccc1 [Compound 95A] | 9.9
21 | CS(=O)(=O)N[C@@H](CS(=O)(=O)CCOP(=O)(N(CCCl)CCCl)N(CCCl)CCCl)C(=O)N1CCOCC1 [Compound 96A] | 9.6
22 | CC(C)NC(=O)[C@H](CS(=O)(=O)CCOP(=O)(N(CCCl)CCCl)N(CCCl)CCCl)NS(C)(=O)=O [Compound 97A] | 8.5
23 | CS(=O)(=O)N[C@@H](CS(=O)(=O)CCOP(=O)(N(CCCl)CCCl)N(CCCl)CCCl)C(=O)N1CCN(C(=O)c2ccco2)CC1 [Compound 98A] | 9.9
24 | N#Cc1ccc(S(=O)(=O)N[C@@H](CS(=O)(=O)CCOP(=O)(N(CCCl)CCCl)N(CCCl)CCCl)C(=O)NCc2ccccc2)cc1 [Compound 99A] | 6.4
25 | N#Cc1ccc(S(=O)(=O)N[C@@H](CS(=O)(=O)CCOP(=O)(N(CCCl)CCCl)N(CCCl)CCCl)C(=O)N2CCOCC2)cc1 [Compound 100A] | 7.4
26 | CC(C)NC(=O)[C@H](CS(=O)(=O)CCOP(=O)(N(CCCl)CCCl)N(CCCl)CCCl)NS(=O)(=O)c1ccc(C#N)cc1 [Compound 101A] | 7.2
27 | N#Cc1ccc(S(=O)(=O)N[C@@H](CS(=O)(=O)CCOP(=O)(N(CCCl)CCCl)N(CCCl)CCCl)C(=O)N2CCN(C(=O)c3ccco3)CC2)cc1 [Compound 102A] | 9.2
28 | O=C(O)[C@H](CS(=O)(=O)CCOP(=O)(N(CCCl)CCCl)N(CCCl)CCCl)NS(=O)(=O)c1ccccc1 [Compound 103A] | 14.5
29 | CS(=O)(=O)N[C@@H](CS(=O)(=O)CCOP(=O)(N(CCCl)CCCl)N(CCCl)CCCl)C(=O)O [Compound 104A] | 20
30 | O=C(O)[C@H](CS(=O)(=O)CCOP(=O)(N(CCCl)CCCl)N(CCCl)CCCl)NS(=O)(=O)c1ccc(Cl)cc1 [Compound 105A] | 23.1
31 | O=P(OCCS(=O)(=O)c1ccccc1Cl)(N(CCCl)CCCl)N(CCCl)CCCl [Compound 106A] | 3.7
32 | Cc1ccc(S(=O)(=O)CCOP(=O)(N(CCCl)CCCl)N(CCCl)CCCl)cc1 [Compound 107A] | 1.6
33 | O=P(OCCS(=O)(=O)c1ccc(Cl)cc1)(N(CCCl)CCCl)N(CCCl)CCCl [Compound 108A] | 2.3
34 | O=P(OCCS(=O)(=O)c1ccc(C(F)(F)F)cc1)(N(CCCl)CCCl)N(CCCl)CCCl [Compound 109A] | 0.6
35 | Cc1cccc(S(=O)(=O)CCOP(=O)(N(CCCl)CCCl)N(CCCl)CCCl)c1 [Compound 110A] | 1.3
36 | O=P(OCCS(=O)(=O)c1ccc(F)cc1)(N(CCCl)CCCl)N(CCCl)CCCl [Compound 111A] | 0.6

Test system: LNCap (prostate carcinoma)
Experiment: Cytotoxicity/growth inhibition assay, LNCap
Assay type: cell-based, human
Conditions: LNCap cells, 4 days culture, CellTiter-Glo, 0.1-200 μM tested; read-out: IC50 (LNCap)
From the text: as §1, §2

Row | Compound | IC50 [µM]
37 | N[C@@H](CS(=O)(=O)CCOP(=O)(N(CCCl)CCCl)N(CCCl)CCCl)C(=O)NCCC(=O)O [Compound 94A] | ≥ 200
38 | CS(=O)(=O)N[C@@H](CS(=O)(=O)CCOP(=O)(N(CCCl)CCCl)N(CCCl)CCCl)C(=O)NCc1ccccc1 [Compound 95A] | 46.6
39 | CS(=O)(=O)N[C@@H](CS(=O)(=O)CCOP(=O)(N(CCCl)CCCl)N(CCCl)CCCl)C(=O)N1CCOCC1 [Compound 96A] | 81
40 | CC(C)NC(=O)[C@H](CS(=O)(=O)CCOP(=O)(N(CCCl)CCCl)N(CCCl)CCCl)NS(C)(=O)=O [Compound 97A] | 57.8
41 | CS(=O)(=O)N[C@@H](CS(=O)(=O)CCOP(=O)(N(CCCl)CCCl)N(CCCl)CCCl)C(=O)N1CCN(C(=O)c2ccco2)CC1 [Compound 98A] | 144
42 | N#Cc1ccc(S(=O)(=O)N[C@@H](CS(=O)(=O)CCOP(=O)(N(CCCl)CCCl)N(CCCl)CCCl)C(=O)NCc2ccccc2)cc1 [Compound 99A] | 33.5
43 | N#Cc1ccc(S(=O)(=O)N[C@@H](CS(=O)(=O)CCOP(=O)(N(CCCl)CCCl)N(CCCl)CCCl)C(=O)N2CCOCC2)cc1 [Compound 100A] | 61.4
44 | CC(C)NC(=O)[C@H](CS(=O)(=O)CCOP(=O)(N(CCCl)CCCl)N(CCCl)CCCl)NS(=O)(=O)c1ccc(C#N)cc1 [Compound 101A] | 57
45 | N#Cc1ccc(S(=O)(=O)N[C@@H](CS(=O)(=O)CCOP(=O)(N(CCCl)CCCl)N(CCCl)CCCl)C(=O)N2CCN(C(=O)c3ccco3)CC2)cc1 [Compound 102A] | 81.6
46 | O=C(O)[C@H](CS(=O)(=O)CCOP(=O)(N(CCCl)CCCl)N(CCCl)CCCl)NS(=O)(=O)c1ccccc1 [Compound 103A] | 151
47 | CS(=O)(=O)N[C@@H](CS(=O)(=O)CCOP(=O)(N(CCCl)CCCl)N(CCCl)CCCl)C(=O)O [Compound 104A] | ≥ 200
48 | O=C(O)[C@H](CS(=O)(=O)CCOP(=O)(N(CCCl)CCCl)N(CCCl)CCCl)NS(=O)(=O)c1ccc(Cl)cc1 [Compound 105A] | ≥ 200
49 | O=P(OCCS(=O)(=O)c1ccccc1Cl)(N(CCCl)CCCl)N(CCCl)CCCl [Compound 106A] | 18.3
50 | Cc1ccc(S(=O)(=O)CCOP(=O)(N(CCCl)CCCl)N(CCCl)CCCl)cc1 [Compound 107A] | 18.1
51 | O=P(OCCS(=O)(=O)c1ccc(Cl)cc1)(N(CCCl)CCCl)N(CCCl)CCCl [Compound 108A] | 6.4
52 | O=P(OCCS(=O)(=O)c1ccc(C(F)(F)F)cc1)(N(CCCl)CCCl)N(CCCl)CCCl [Compound 109A] | 7.7
53 | Cc1cccc(S(=O)(=O)CCOP(=O)(N(CCCl)CCCl)N(CCCl)CCCl)c1 [Compound 110A] | 20.5
54 | O=P(OCCS(=O)(=O)c1ccc(F)cc1)(N(CCCl)CCCl)N(CCCl)CCCl [Compound 111A] | 20.1
